# From patent US20090118253A1, “COMPOSITIONS AND METHODS FOR TREATING DYSFUNCTIONAL UTERINE BLEEDING” (REPROS THERAPEUTICS INC., priority 2007, published 2009)
# What was measured:
# [1] = test system: progesterone-induced endometrial glandular proliferation in rabbit uterus; test: anti-McGinty and anti-Clauberg assays in the rabbit uterus; format: in vivo; conditions: for rabbit Biol. Act.: average of anti-McGinty and anti-Clauberg results relative to CDB-2914 (=1.00)
# Description: Also given in Table 1 are the relative biological activities of the same compounds in the rabbit uterus by the anti-McGinty and anti-Clauberg assays. Compound CDB-2914 (listed at the end of the Table) was used as the control or reference compound (rabbit Biological Activity=1.00) for these experiments because results of experiments using CDB-2914 have been published before (Hild-Petito et al., 1996; Passaro et al., 1997; Reel et al., 1998; Lamer et al., 2000). For the anti-McGinty test, immature female rabbits received a subcutaneous injection of 5 μg estradiol in 10% ethanol/sesame oil daily for 6 consecutive days. On day 7, animals underwent sterile abdominal surgery to ligate a 3-4 cm segment of both uterine horns. The test compound in appropriate solvent was injected intraluminally into the ligated segment of one uterine horn and vehicle alone into the other. A stimulating dose of progesterone (267 μg/day) was administered subcutaneously to each rabbit daily for the next three days to induce endometrial proliferation. All animals were sacrificed at day 10 for removal of the uterus where a segment central to the ligatures was removed and fixed in 10% neutral buffered formalin and submitted for histological processing. Five micron sections stained with hematoxylin and cosin were evaluated microscopically for the degree of endometrial glandular proliferation. The percent inhibition of endometrial proliferation for each rabbit was calculated and the mean of the group of five animals recorded. For the Anti-Clauberg test, immature female rabbits received a subcutaneous injection of 5 μg estradiol in 10% ethanol/sesame oil daily for 6 consecutive days. On day 7, animals received progesterone by subcutaneous injection (160 μg/day) and the experimental compound in appropriate vehicle orally or subcutaneously for five consecutive days. One group of rabbits received progesterone only. Twenty-four hours after the last dose, all animals were sacrificed for removal of the uterus which was cleaned of all fat and connective tissue, weighed to the nearest 0.2 mg and placed in 10% neutral buffered formalin for subsequent histological processing. Five micron sections stained with hematoxylin and eosin were evaluated microscopically for the degree of endometrial glandular proliferation. The percent inhibition of endometrial proliferation at each dose level of the test compound was derived by comparison with progesterone-stimulated animals alone. The data presented in Table 1 (rabbit Biol. Act.) reflects the average of the results obtained for each compound by the anti-McGinty and anti-Clauberg assays relative to CDB-2914.
# [2] = biological target: T1, glucocorticoid receptor (rbGR) (Oryctolagus cuniculus, UniProt P59667); test: Glucocorticoid receptor binding / anti-glucocorticoid receptor activity; parameters: species or system rabbit
# T1 construct: cytosol containing PR or GR were prepared in TEGMD buffer; from tissue; host or cells: thymus of estradiol-primed immature rabbits (cytosol)
# T1 sequence (P59667 1-772): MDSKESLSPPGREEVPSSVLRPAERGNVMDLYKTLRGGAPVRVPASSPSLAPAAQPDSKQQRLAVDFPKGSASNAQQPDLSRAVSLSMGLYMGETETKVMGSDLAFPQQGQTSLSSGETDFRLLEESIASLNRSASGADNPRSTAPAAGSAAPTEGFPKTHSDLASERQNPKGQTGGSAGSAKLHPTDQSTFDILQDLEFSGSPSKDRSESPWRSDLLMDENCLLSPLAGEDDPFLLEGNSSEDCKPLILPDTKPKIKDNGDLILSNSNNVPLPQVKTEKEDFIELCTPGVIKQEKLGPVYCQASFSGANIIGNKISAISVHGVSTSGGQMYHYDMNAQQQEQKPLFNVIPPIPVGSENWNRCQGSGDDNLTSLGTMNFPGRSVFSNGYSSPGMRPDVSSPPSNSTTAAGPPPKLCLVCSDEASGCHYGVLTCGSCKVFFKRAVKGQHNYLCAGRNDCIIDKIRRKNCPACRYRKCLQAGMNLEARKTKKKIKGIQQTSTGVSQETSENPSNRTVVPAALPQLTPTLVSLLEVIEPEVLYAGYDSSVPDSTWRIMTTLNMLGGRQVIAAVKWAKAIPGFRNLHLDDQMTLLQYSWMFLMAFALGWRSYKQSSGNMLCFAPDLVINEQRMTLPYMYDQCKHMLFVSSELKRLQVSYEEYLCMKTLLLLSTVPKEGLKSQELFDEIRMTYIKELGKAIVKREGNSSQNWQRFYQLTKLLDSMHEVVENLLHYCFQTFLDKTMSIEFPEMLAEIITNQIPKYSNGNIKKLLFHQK
# Procedure: Certain antiprogestins were tested in receptor-binding assays for their ability to bind rabbit progesterone receptor (rbPR) and glucocorticoid receptor (rbGR). […] For PR binding, the cytosol was incubated with 6 nM 1,2-[^3H]progesterone (50.0 Ci/mmole) and competitors were added at concentrations from 2 to 100 nM. For binding to GR, the cytosol was incubated with 6 nM 6,7-[^3H]-dexamethasone (40 Ci/mmol) and test compounds were added at concentrations from 20 to 100 nM. After overnight incubation at 4 C, bound and unbound [^3H] steroids were separated by addition of dextran-coated charcoal and centrifugation at 2100×g for 15 min at 4 C. Supernatants containing the [3H]-steroid receptor complexes were decanted into vials containing 4 ml Optifluor (Packard Instrument Co.), vortexed, equilibrated in a liquid scintillation counter for 30 minutes and then counted for 2 minutes. […] The standards for the PR and GR assays were unlabeled progesterone and dexamethasone, respectively.
# [3] = test system: rabbit progesterone receptor (rbPR) and glucocorticoid receptor (rbGR); test: Receptor-binding assays, ratio of relative binding affinities rbPR/rbGR; conditions: ratio of relative binding affinities (RBA = EC50 of standard/EC50 of test compound x 100) for rbPR and rbGR
# Procedure: Certain antiprogestins were tested in receptor-binding assays for their ability to bind rabbit progesterone receptor (rbPR) and glucocorticoid receptor (rbGR). Briefly, cytosol containing PR or GR were prepared in TEGMD buffer (10 mM Tris, pH 7.2, 1.5 mM EDTA, 0.2 mM sodium molybdate, 10% glycerol, 1 mM DTT) from uterus or thymus, respectively, of estradiol-primed immature rabbits. For PR binding, the cytosol was incubated with 6 nM 1,2-[^3H]progesterone (50.0 Ci/mmole) and competitors were added at concentrations from 2 to 100 nM. For binding to GR, the cytosol was incubated with 6 nM 6,7-[^3H]-dexamethasone (40 Ci/mmol) and test compounds were added at concentrations from 20 to 100 nM. After overnight incubation at 4 C, bound and unbound [^3H] steroids were separated by addition of dextran-coated charcoal and centrifugation at 2100×g for 15 min at 4 C. Supernatants containing the [3H]-steroid receptor complexes were decanted into vials containing 4 ml Optifluor (Packard Instrument Co.), vortexed, equilibrated in a liquid scintillation counter for 30 minutes and then counted for 2 minutes. The EC50 (Effective Concentration) for each standard curve and each of the compound curves was determined by entering the counting data into a four parameter sigmoidal computer program (RiaSmart® Immunoassay Data Reduction Program, Packard Instrument Co., Meriden, Conn.). Relative binding affinity (RBA) for each compound was calculated using the following equation: EC50 of standard/EC50 of test compound×100. The standards for the PR and GR assays were unlabeled progesterone and dexamethasone, respectively. The results of these experiments are summarized in Table 1, as a ratio of the relative binding affinities of each compound for the rbPR and rbGR receptors (rbPR/rbGR).
# Serum cortisol in rats = format: in vivo, rat; conditions: 10 mg/kg, 21 days of chronic dosing
# Procedure: These higher levels were in the range of 3-4 ug/dl (30-40 ng/ml).
# [4] = Estrogenic, androgenic, anti-estrogenic and anti-androgenic activities
# [5] = test system: Cynomolgus monkey endometrial epithelia, uterus stroma and breast; test: BrdU incorporation, tissue proliferation in cynomolgus monkeys; format: in vivo, Cynomolgus monkeys (Macaca fascicularis); conditions: week 36, % cells positive for incorporation of BrdU, three animals per group
# Procedure: At week 36, three animals from each group of Example 6 were injected within 24 hours of sacrifice with the thymidine analog bromodeoxyuridine (BrdU), a marker of proliferating cells and their progeny, to assess tissue proliferation. Full thickness uterine sections were stained and examined microscopically for evidence of proliferation in terms of the % cells positive for incorporation of BrdU: […]
# [6] = Urinary estrogen levels (follicular phase) in cynomolgus monkeys; format: in vivo, Cynomolgus monkeys (Macaca fascicularis); parameters: Urinary estrogen, follicular phase, Mean: unit not given here; conditions: for Urinary estrogen, follicular phase, Mean: CDB-4124 or RU-486 oral 1.0 mg/kg/day, Lupron IM once per month
# Procedure: (§1) Cynomolgus monkeys (Macaca fascicularis) (n=14) were treated orally for 36 weeks with CDB-4124 or RU-486 at 1.0 mg/kg/day or with placebo (control). Another group (n=14) received Lupron® IM once per month. Urinary progesterone levels were measured for each animal for one month during the middle of the study (weeks 14-17) and for the last month of the study (weeks 33-36). The results are presented below:
# Urinary estrogen levels were measured for each animal of Example 6 for one month during the middle of the study (weeks 14-17) and for the last month of the study (weeks 33-36). The follicular phase results are based on 35 baseline ovulating cycles.
# [7] = Serum corticosterone in rats; conditions: for differences in serum corticosterone between groups: CDB-4124 10 or 20 mg/kg, RU 486 10 mg/kg, progesterone 10 mg/kg
# [8] = test system: Cynomolgus monkey endometrial epithelium, uterus stroma and breast; test: TUNEL apoptosis in cynomolgus monkey tissue; format: in vivo, Cynomolgus monkeys (Macaca fascicularis); conditions: week 36, percent apoptotic cells
# Procedure: Apoptosis was assessed in tissue from the same animals on slides by the terminal deoxynucleotidyl transferase mediated dUTP-biotin nick end labeling (TUNEL) technique.
# [9] = Urinary progesterone levels (luteal phase) in cynomolgus monkeys; format: in vivo, Cynomolgus monkeys (Macaca fascicularis); conditions: n=14 per group; CDB-4124 or RU-486 oral 1.0 mg/kg/day for 36 weeks; Lupron IM once per month
# Procedure: as §1, with “33-36).” for “33-36). The results are presented below:”
structure (smiles),measurement,setting,value
"CC(=O)O[C@]1(C(C)=O)CC[C@H]2[C@@H]3CCC4=CC(=O)CCC4=C3[C@@H](c3ccc(N(C)C)cc3)C[C@@]21C [CDB-2914, 17α-acetoxy-11β-(4-N,N-dimethylaminophenyl)-19-norpregna-4,9-dien-3,20-dione, reference compound]",rabbit Biol. Act.,[1],1.00
same,anti-glucocorticoid receptor activity / glucocorticoid receptor binding,[2],moderately active
same,rbPR/rbGR,[3],1.07
"CC(=O)OCC(=O)[C@@]1(OC(C)=O)CCC2C3CCC4=CC(=O)CCC4=C3C(c3ccc(N(C)C)cc3)C[C@@]21C (stereo partly drawn) [CDB-4059, 21-acetoxy-17α-acetoxy-11β-(4 N,N-dimethylaminophenyl)-19-norpregna-4,9-diene-3,20-dione]",rabbit Biol. Act.,[1],2.90
same,antiprogestin activity in the rabbit uterus,[1]; in comparison to RU 486 and CDB-2914,strong antiprogestin activity
same,levels of serum cortisol versus control group,Serum cortisol in rats,significantly higher
same,anti-glucocorticoid receptor activity / glucocorticoid receptor binding,[2],minimal anti-glucocorticoid receptor activity
same,rbPR/rbGR,[3],1.89
same,"estrogenic, androgenic, anti-estrogenic, and anti-androgenic activities",[4],"lack estrogenic, androgenic, anti-estrogenic, and anti-androgenic activities"
"CC#C[C@]1(O)CC[C@H]2[C@@H]3CCC4=CC(=O)CCC4=C3[C@@H](c3ccc(N(C)C)cc3)C[C@@]21C [RU 486, 11β-[p-(Dimethylamino)phenyl]-17β-hydroxy-17-(1-propynyl)estra-4,9-dien-3-one]",Breast Brdu-%,[5],0.9 ± 0.3%
same,Uterus epithelium Brdu-%,[5],12.6 ± 1.8%
same,Uterus stroma Brdu-%,[5],3.1 ± 1.0%
same,Follicular phase estrogen Lower?,[6]; Week 18,No
same,"Urinary estrogen, follicular phase, Mean",[6]; Week 18,67.4
same,Follicular phase estrogen Lower?,[6]; Week 36,No
same,"Urinary estrogen, follicular phase, Mean",[6]; Week 36,64.8
same,differences in serum corticosterone between groups,[7],No differences
same,levels of serum cortisol versus control group,Serum cortisol in rats,no significant difference
same,anti-glucocorticoid receptor activity / glucocorticoid receptor binding,[2],moderately active
same,Breast Apo %,[8],1.2 ± 0.6%
same,Uterus epithelium Apo %,[8],0.5 ± 0.1%
same,Uterus stroma Apo %,[8],0.5 ± 0.1%
same,Decrease in luteal phase progesterone (number of animals),[9],9
same,No decrease in luteal phase progesterone (number of animals),[9],5
CC(=O)[C@H]1CC[C@H]2[C@@H]3CCC4=CC(=O)CC[C@]4(C)[C@H]3CC[C@]12C [progesterone],differences in serum corticosterone between groups,[7],No differences
same,levels of corticosterone in animals treated with exogenous progesterone,"[7]; after 21 days of treatment, p=0.029, not verified at sacrifice",lowered
